{"source": "patent US20080175891A1", "about": "“METHODS, COMPOSITIONS, AND FORMULATIONS FOR PREVENTING OR REDUCING ADVERSE EFFECTS IN A PATIENT” (priority 2007, published 2008)", "key": {"[1]": {"test_system": "seizures", "conditions": "experimental animal model; cited from earlier work"}, "[2]": {"test_system": "pentylene tetrazol-induced seizures", "experiment": "Pentylene tetrazol-induced seizures (Example XIII)", "conditions": "in vivo", "source_text": "The adenosine released from neuronal cells when they are stimulated and break down ATP during seizure (epileptic) activity normally will feedback and suppress this seizure (epileptic) activity."}, "[3]": {"test_system": "arrhythmias", "experiment": "Prophylactic effect of AICA riboside treatment on arrhythmias (Examples VI and XIV)", "assay_type": "in vivo", "source_text": "Another disease caused by or able to cause restricted blood flow is myocardial arrhythmia. Although restricted blood flow can initiate the onset of arrhythmia, the precise cause is unknown. However, it is known that lipid peroxidation by oxygen radicals is arrhythmogenic. Since the latter are produced by granulocytes, the inhibition of granulocyte superoxide production by the method of the invention can be expected to control arrhythmia. In addition, mast cells are in higher concentration in areas of atherosclerosis. Suppression of their activation might reduce the release of other mediators of arrhythmias. Adenosine also has direct anti-arrhythmic effects on myocytes. […] Rapid firing of cells during arrhythmia causes increased net ATP catabolism and adenosine release."}, "[4]": {"test_system": "bronchospasm induced by antigen sensitization", "conditions": "guinea pig; cited from earlier work"}, "[5]": {"conditions": "human, in vivo", "source_text": "Applicant also discovered that lower doses of AICA riboside were needed to achieve the desired blood concentration levels in anesthetized patients than in non-anesthetized patients. It appears that the dose needed in anesthetized patients may be about 20-50% less than the dose needed in non-anesthetized patients. Thus, a preferred dosage of AICA riboside (or prodrug) in a non-anesthetized patient or a patient anesthetized for a short time is larger than the preferred dosage for an anesthetized patient. Accordingly, dosages of from about 0.075 mg/kg/min to about 0.30 mg/kg/min are preferred in such cases, more preferably between about 0.10 mg/kg/min and about 0.15 mg/kg/min, and most preferably about 0.125 mg/kg/min."}, "[6]": {"test_system": "patients with adenylosuccinase deficiency (autism)", "experiment": "Therapeutic trials in patients with adenylosuccinase deficiency (autism) (Example X)", "assay_type": "in vivo, human", "conditions": "oral", "experimental": "Conditions potentially associated with chronic low adenosine may also be treated by compounds of the invention. These pathologic states include autism, insomnia, cerebral palsy, schizophrenia, and other neuropsychiatric symptoms. It is anticipated that doses ranging from 0.1 mg/kg/day up to about 200 mg/kg/day will be beneficial."}, "[7]": {"test_system": "mast cells", "experiment": "Mast cell activation / degranulation", "assay_type": "cell-based", "source_text": "As discussed in B. Benacerra and A. Unanue in Textbook of Immunology (Williams & Williams Baltimore/London, 1979), a key to suppressing allergic responses is to prevent the release of pharmacologically active substances by mast cells. Mast cells are large basophilic staining cells with extensive granules that contain substances, such as histamines, that are liberated by the mast cell during an allergic reaction and are required to support the allergic response. The release of these pharmacologically active substances present in mast cells is termed “degranulation.” Thus, chemicals that prevent degranulation should have a beneficial effect on reducing the severity of the allergic response. […] Mast cell activation also causes the release of prostaglandins and leukotrienses (non-preformed mediators) such as slow reactive substance of anaphylaxis."}}}
{"smiles": "NC(=O)c1ncn([C@@H]2O[C@H](CO)[C@@H](O)[C@H]2O)c1N", "note": "[AICA riboside, 5-amino-1-β-D-ribofuranosyl-imidazole-4-carboxamide]", "values": [{"measurement": "inhibition of seizures", "setting": "[1]", "result": "inhibitor of seizures"}, {"measurement": "incidence of pentylene tetrazol-induced seizures", "setting": "[2]", "result": "decreased incidence"}, {"measurement": "latency to pentylene tetrazol-induced seizures", "setting": "[2]", "result": "prolonged latency"}, {"measurement": "number of premature ventricular depolarizations", "setting": "[3]", "result": "decreased number"}, {"measurement": "number of ventricular tachycardia episodes", "setting": "[3]", "result": "decreased number"}, {"measurement": "anti-allergic actions", "setting": "[4]", "result": "anti-allergic actions"}, {"measurement": "dose needed in anesthetized patients, less than in non-anesthetized patients", "setting": "[5]", "result": "20-50%"}, {"measurement": "clinical or biochemical side effects", "setting": "[6]; 5 mg/kg/day increased to 2×10 mg/kg/day", "result": "No clinical or biochemical side effects were observed"}, {"measurement": "behaviour during therapy as described by the parent", "setting": "[6]; 5 mg/kg/day increased to 2×10 mg/kg/day, both patients", "result": "more pleasantly active and more easy to handle during therapy"}, {"measurement": "clinical improvement", "setting": "[6]; 5 mg/kg/day increased to 2×5 and finally 2×10 mg/kg/day, two patients", "result": "clear-cut improvement in one of two patients"}, {"measurement": "mast cell activation", "setting": "[7]", "result": "suppress mast cell activation"}, {"measurement": "mast cell degranulation", "setting": "[7]", "result": "prevent mast cell degranulation"}]}
{"smiles": "CC(=O)OC[C@H]1O[C@@H](c2nc(C(N)=O)c(N)[nH]2)[C@H](OC(C)=O)[C@@H]1OC(C)=O", "note": "[Compound No. 2, 5-Amino-(2,3,5-tri-O-acetyl-beta-D-ribofuranosyl)imidazole-4-carboxamide]", "values": [{"measurement": "melting point", "result": "128 to 129", "unit": "°C"}]}
{"smiles": "Nc1c(C(=O)NCCCCCCNC(=O)c2ncn([C@@H]3O[C@H](CO)[C@@H](O)[C@H]3O)c2N)ncn1[C@@H]1O[C@H](CO)[C@@H](O)[C@H]1O", "note": "[Compound No. 68, N,N′-bis-(5-amino-1-β-D-ribofuranosylimidazole-4-carbonyl)-1,6-diaminohexane]", "values": [{"measurement": "melting point", "result": "181 to 185", "unit": "°C"}]}
{"smiles": "NC(=O)c1ncn([C@@H]2O[C@H](CO)[C@@H](O)[C@H]2O)n1", "note": "[ribavirin, 1-β-D-ribofuranosyl-1H-1,2,4-triazole-3-carboxamide]", "values": [{"measurement": "mast cell activation", "setting": "[7]", "result": "suppress mast cell activation"}, {"measurement": "mast cell degranulation", "setting": "[7]", "result": "prevent mast cell degranulation"}]}
